In one assay the test system is Botrytis cinerea. Kind of assay: Effect test on cucumber gray mold (cucumber cotyledons, paper disc). Format: in vivo. Conditions: 20° C., 4 days. As for the experimental part: Cotyledons were harvested from cucumbers (variety: Hikari No. 3 P-type) that had been grown in a greenhouse for 3 weeks in a plastic pot having a diameter of 6 cm. The harvested cotyledons were placed side by side in a Tupperware container in which wetted filter paper was laid, and a paper disc having a diameter of 8 mm was placed on the center of each of the cotyledons. To each paper disc, 50 μL of a suspension of Botrytis cinerea spores (2×10^4/ml, containing 2% of sucrose and 0.2% of a yeast extract) was added, and at the same time, 50 μL of a phosphate buffer (40 mM, pH 7.2) having dissolved therein each wettable powder prepared in Formulation Example 1 at a target concentration was added. A lid was placed on the Tupperware container, which was kept at 20° C. for 4 days. After that, diseased areas were investigated with eyes to determine a preventive value. The preventive value (%) was calculated using the following equation. Preventive value=(1−(diameter of infection zone in leaf with test compound/diameter of infection zone in control leaf))×100

Another assay concerns cucumber powdery mildew. Put plainly: Effect test on cucumber powdery mildew (potted cucumbers, spray). The assay is classed as in vivo. The conditions noted are these: 10 days after inoculation. An excerpt:
A sufficient amount of a dilute solution of each wettable powder prepared in Formulation Example 1 was spread with a spray gun on cucumbers (variety: Hikari No. 3 P-type) that had been grown in a greenhouse to the third-leaf unfolding stage in a plastic pot having a diameter of 6 cm. The next day, the cucumbers were inoculated with a suspension of cucumber powdery mildew spores by misting. The cucumbers were allowed to stand in the greenhouse for 10 days, and diseased area ratios in the first leaf and the second leaf (first and second leaves from the ground) were investigated with eyes to determine a preventive value. The preventive value (%) was calculated using the following equation. Preventive value=(1−(ratio of infection zone in leaf with test compound/ratio of infection zone in control leaf))×100

Take `C[C@@H](N)C(=O)N[C@H]1COC(O)[C@H](N)[C@H]1O` (stereo partly drawn) [Prumycin, 4-N-D-alanyl-2,4-diamino-2,4-dideoxyarabinose]: the “Preventive value (%)” value in the assay with Botrytis cinerea (single chemical 0.5 ppm) is 6%; in the assay with Botrytis cinerea (single chemical 1 ppm) it was 45%; with Botrytis cinerea (single chemical 2 ppm), 55%; with Botrytis cinerea (single chemical 5 ppm), 95%; in the assay with Botrytis cinerea (single chemical 10 ppm), 100%; with cucumber powdery mildew (single chemical 0.5 ppm), 7%. Also, the “Preventive value (%)” value in the assay with cucumber powdery mildew (single chemical 1 ppm) turned out to be 21%; with cucumber powdery mildew (single chemical 2 ppm), 44%; with cucumber powdery mildew (single chemical 5 ppm) it was 69%; in the assay with cucumber powdery mildew (single chemical 10 ppm) it was 95%.
Turning to iso-C14 [Ile^7]surfactin, the “Preventive value (%)” value with Botrytis cinerea (single chemical 1 ppm), in the assay with Botrytis cinerea (single chemical 10 ppm), with cucumber powdery mildew (single chemical 1 ppm) and in the assay with cucumber powdery mildew (single chemical 10 ppm) was 0% each time.
With surfactin, the “Preventive value (%)” value with Botrytis cinerea (single chemical 1 ppm), in the assay on Botrytis cinerea (single chemical 10 ppm), with cucumber powdery mildew (single chemical 1 ppm) and in the assay on cucumber powdery mildew (single chemical 10 ppm) was 0% each time.

(Values after patent US10412963B2, “Agricultural and horticultural fungicide composition and plant disease controlling method” (SDS BIOTECH K.K., priority 2016, dated 2019).)
